Reference: patent US7229984B2, “Dibenzoxazepinone derivatives and uses thereof” (Roche Palo Alto LLC, priority 2004, dated 2007)
Counter-ions that a name gives are not always drawn.

Legend:
[1] = molecular target: T1, recombinant human 5-HT2A receptor (Homo sapiens, UniProt P28223); experiment: Radioligand binding, [3H]Ketanserin competition in CHO-K1 cell membranes; conditions: [3H]Ketanserin displacement, pH 7.4, 32° C., approximate value, read-out: pKi for 5-HT2A (converted)
T1 construct: expressed in transfected cells; membranes
Experimental: (§1) The binding activity of compounds of this invention in vitro was determined as follows. Duplicate determinations of 5-HT6 ligand affinity were made by competing for binding of [^3H]LSD in cell membranes derived from HEK293 cells stably expressing recombinant human 5-HT6 receptor. Duplicate determinations of 5-HT2A ligand affinity were made by competing for binding of [^3H]Ketanserin (3-(2-(4-(4-fluorobenzoyl)piperidinol)ethyl)-2,4(1H,3H)-quinazolinedione) in cell membranes derived from CHO-K1 cells stably expressing recombinant human 5-HT2A receptor. Membranes were prepared from HEK 293 cell lines by the method described by Monsma et al., Molecular Pharmacology, Vol. 43 pp. 320–327 (1993), and from CHO-K1cell lines as described by Bonhaus et al., Br J Pharmacol. Jun; 115(4):622–8 (1995).
(§2) For estimation of affinity at the 5-HT6 receptor, all determinations were made in assay buffer containing 50 mM Tris-HCl, 10 mM MgSO4, 0.5 mM EDTA, 1 mM ascorbic acid, pH 7.4 at 37° C., in a 250 microliter reaction volume. […]
(§3) Assay tubes containing [^3H] […] Bound[^3H]LSD or [^3H]Ketanserin were determined as radioactive counts per minute using Packard TopCount.
(§4) Displacement of [^3H]LSD or [^3H]Ketanserin from the binding sites was quantified by fitting concentration-binding data to a 4-parameter logistic equation: […]

[2] = molecular target: T2, recombinant human 5-HT6 receptor (Homo sapiens, UniProt P50406); experiment: Radioligand binding, [3H]LSD competition in HEK293 cell membranes; conditions: [3H]LSD displacement, pH 7.4, 37° C., approximate value, read-out: pKi for 5-HT6 (converted)
T2 construct: expressed in transfected cells; membranes
Experimental: as §1, §2, §3, §4

T1 sequence (P28223 whole entry): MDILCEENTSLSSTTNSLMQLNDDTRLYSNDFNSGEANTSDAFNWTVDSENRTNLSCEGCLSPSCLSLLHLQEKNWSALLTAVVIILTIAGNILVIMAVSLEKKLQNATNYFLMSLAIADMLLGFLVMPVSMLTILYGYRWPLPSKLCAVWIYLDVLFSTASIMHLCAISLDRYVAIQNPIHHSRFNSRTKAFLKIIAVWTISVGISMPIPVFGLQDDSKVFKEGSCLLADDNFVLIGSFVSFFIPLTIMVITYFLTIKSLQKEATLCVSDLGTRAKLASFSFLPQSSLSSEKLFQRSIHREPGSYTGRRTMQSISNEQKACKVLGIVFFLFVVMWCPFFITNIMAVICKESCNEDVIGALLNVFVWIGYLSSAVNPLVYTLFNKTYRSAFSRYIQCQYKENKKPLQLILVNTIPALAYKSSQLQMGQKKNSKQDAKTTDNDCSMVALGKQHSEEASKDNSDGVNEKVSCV
T2 sequence (P50406 whole entry): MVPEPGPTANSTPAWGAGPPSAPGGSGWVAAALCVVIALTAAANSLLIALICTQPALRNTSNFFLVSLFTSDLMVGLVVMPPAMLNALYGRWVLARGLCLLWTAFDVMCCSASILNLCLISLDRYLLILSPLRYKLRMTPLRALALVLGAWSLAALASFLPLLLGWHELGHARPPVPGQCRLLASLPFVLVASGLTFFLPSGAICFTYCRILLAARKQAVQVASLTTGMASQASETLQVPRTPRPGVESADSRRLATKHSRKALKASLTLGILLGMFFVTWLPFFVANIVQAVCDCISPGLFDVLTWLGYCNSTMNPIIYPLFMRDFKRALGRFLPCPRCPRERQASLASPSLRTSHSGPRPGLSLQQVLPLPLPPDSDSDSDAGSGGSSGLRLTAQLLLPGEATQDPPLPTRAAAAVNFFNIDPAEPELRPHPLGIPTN

SMILES | melting point | other results
O=C1c2cccc(N3CCNCC3)c2Oc2ccccc2N1Cc1ccccc1 (as salt: HCl) [Compound 1, 10-Benzyl-4-piperazin-1-yl-10H-dibenzo[b,f][1,4]oxazepin-11-one] | 198 to 199 °C | 
O=C1c2cccc(N3CCNCC3)c2Nc2ccccc2N1Cc1ccccc1 (as salt: HCl) [Compound 13, 10-Benzyl-4-piperazin-1-yl-5,10-dihydro-dibenzo[b,e][1,4]diazepin-11-one] | 322 to 323 °C (dec.) | 
O=C1c2cccc(N3CCNCC3)c2Sc2ccccc2N1Cc1ccccc1 (as salt: HCl) [Compound 20, 10-Benzyl-4-piperazin-1-yl-10H-dibenzo[b,f][1,4]thiazepin-11-one] | 301 to 302 °C | 
O=C1c2cccc(N3CCNCC3)c2Oc2c(F)cccc2N1CCc1ccccc1 [Compound 26, 6-Fluoro-10-phenethyl-4-piperazin-1-yl-10H-dibenzo[b,f][1,4]oxazepin-11-one,hydrochloride] |  | Ki [1]: ~1.32 nM
O=C1c2cccc(N3CCNCC3)c2Oc2ccc(F)cc2N1Cc1cccc(C(F)(F)F)c1 [Compound 28, 8-Fluoro-4-piperazin-1-yl-10-(3-trifluoromethyl-benzyl)-10H-dibenzo[b,f][1,4]oxazepin-11-one] |  | Ki [2]: ~0.282 nM
O=C1c2cccc(N3CCNCC3)c2Oc2ccccc2N1Cc1c[nH]c2ccccc12 [Compound 37, 10-(1H-Indol-3-ylmethyl)-4-piperazin-1-yl-10H-dibenzo[b,f][1,4]oxazepin-11-one] | 98 to 99 °C | 
